Experimental data published in ChEMBL document CHEMBL4414672, “Synthesis of certain benzothieno[3,2-d]pyrimidine derivatives as a selective SIRT2 inhibitors” (Eur J Med Chem, 2020).
In brackets after ≈: the same amount, converted by molar mass.

Tests used:
[1] = test system: MCF7; assay: Cytotoxicity against human MCF7 cells assessed as reduction in cell viability after 24 hrs by MTT assay; format: functional, cell-based; conditions: MCF7, 24 h
[2] = test system: UO-31; assay: Cytotoxicity against human UO31 cells assessed as reduction in cell viability after 24 hrs by MTT assay; format: functional, cell-based; conditions: UO-31, 24 h
[3] = target: T1, NAD-dependent protein deacetylase sirtuin-2 (Homo sapiens, UniProt Q8IXJ6); assay: Inhibition of SIRT2 (unknown origin) using fluorogenic substrate assessed as deacetylase activity incubated for 45 mins by fluorescence assay
T1 sequence (Q8IXJ6 whole entry): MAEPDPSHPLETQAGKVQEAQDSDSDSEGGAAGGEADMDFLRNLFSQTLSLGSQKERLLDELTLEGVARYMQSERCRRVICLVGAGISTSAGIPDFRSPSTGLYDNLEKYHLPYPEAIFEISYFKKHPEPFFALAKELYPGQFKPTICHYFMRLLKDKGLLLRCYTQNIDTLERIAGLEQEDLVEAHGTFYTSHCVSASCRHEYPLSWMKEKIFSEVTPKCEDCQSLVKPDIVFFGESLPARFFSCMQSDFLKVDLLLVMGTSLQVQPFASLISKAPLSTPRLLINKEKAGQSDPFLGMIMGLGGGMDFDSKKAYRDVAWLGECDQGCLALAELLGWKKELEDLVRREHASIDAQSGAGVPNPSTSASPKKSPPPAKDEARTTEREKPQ

[4] = test system: HL-60(TB); assay: Growth inhibition of human HL-60(TB) cells at 10^-5 M incubated for 48 hrs by sulforhodamine B assay; format: functional; conditions: HL-60, 48 h, read-out: GI
[5] = test system: MOLT-4; assay: Growth inhibition of human MOLT4 cells at 10^-5 M incubated for 48 hrs by sulforhodamine B assay; format: functional; conditions: MOLT-4, 48 h, read-out: GI
[6] = test system: SR; assay: Growth inhibition of human SR cells at 10^-5 M incubated for 48 hrs by sulforhodamine B assay; format: functional; conditions: read-out: GI
[7] = test system: HOP-62; assay: Growth inhibition of human HOP62 cells at 10^-5 M incubated for 48 hrs by sulforhodamine B assay; format: functional; conditions: HOP-62, 48 h, read-out: GI
[8] = test system: NCI-H226; assay: Growth inhibition of human NCI-H226 cells at 10^-5 M incubated for 48 hrs by sulforhodamine B assay; format: functional; conditions: NCI-H226, 48 h, read-out: GI
[9] = test system: HCC 2998; assay: Growth inhibition of human HCC2998 cells at 10^-5 M incubated for 48 hrs by sulforhodamine B assay; format: functional; conditions: HCC 2998, 48 h, read-out: GI
[10] = test system: HT-29; assay: Growth inhibition of human HT-29 cells at 10^-5 M incubated for 48 hrs by sulforhodamine B assay; format: functional; conditions: HT-29, 48 h, read-out: GI
[11] = test system: SK-MEL-28; assay: Growth inhibition of human SK-MEL-28 cells at 10^-5 M incubated for 48 hrs by sulforhodamine B assay; format: functional; conditions: SK-MEL-28, 48 h, read-out: GI
[12] = test system: UACC-257; assay: Growth inhibition of human UACC257 cells at 10^-5 M incubated for 48 hrs by sulforhodamine B assay; format: functional; conditions: UACC-257, 48 h, read-out: GI
[13] = test system: UACC-62; assay: Growth inhibition of human UACC62 cells at 10^-5 M incubated for 48 hrs by sulforhodamine B assay; format: functional; conditions: UACC-62, 48 h, read-out: GI
[14] = test system: OVCAR-5; assay: Growth inhibition of human OVCAR5 cells at 10^-5 M incubated for 48 hrs by sulforhodamine B assay; format: functional; conditions: OVCAR-5, 48 h, read-out: GI
[15] = test system: 786-0; assay: Growth inhibition of human 786-0 cells at 10^-5 M incubated for 48 hrs by sulforhodamine B assay; format: functional; conditions: 786-0, 48 h, read-out: GI
[16] = test system: CAKI-1; assay: Growth inhibition of human Caki1 cells at 10^-5 M incubated for 48 hrs by sulforhodamine B assay; format: functional; conditions: CAKI-1, 48 h, read-out: GI
[17] = test system: RXF 393; assay: Growth inhibition of human RXF393 cells at 10^-5 M incubated for 48 hrs by sulforhodamine B assay; format: functional; conditions: RXF 393, 48 h, read-out: GI
[18] = test system: UO-31; assay: Growth inhibition of human UO31 cells at 10^-5 M incubated for 48 hrs by sulforhodamine B assay; format: functional; conditions: UO-31, 48 h, read-out: GI
[19] = test system: DU-145; assay: Growth inhibition of human DU145 cells at 10^-5 M incubated for 48 hrs by sulforhodamine B assay; format: functional; conditions: DU-145, 48 h, read-out: GI
[20] = test system: MCF7; assay: Growth inhibition of human MCF7 cells at 10^-5 M incubated for 48 hrs by sulforhodamine B assay; format: functional; conditions: MCF7, 48 h, read-out: GI
[21] = test system: MDA-MB-231; assay: Growth inhibition of human MDA-MB-231 cells at 10^-5 M incubated for 48 hrs by sulforhodamine B assay; format: functional; conditions: MDA-MB-231, 48 h, read-out: GI
[22] = test system: BT-549; assay: Growth inhibition of human BT549 cells at 10^-5 M incubated for 48 hrs by sulforhodamine B assay; format: functional; conditions: BT-549, 48 h, read-out: GI
[23] = test system: MDA-MB-468; assay: Growth inhibition of human MDA-MB-468 cells at 10^-5 M incubated for 48 hrs by sulforhodamine B assay; format: functional; conditions: MDA-MB-468, 48 h, read-out: GI
[24] = target: NAD-dependent protein deacetylase sirtuin-1 (Homo sapiens, UniProt Q96EB6); assay: Inhibition of SIRT1 (unknown origin) using fluorogenic substrate assessed as deacetylase activity incubated for 45 mins by fluorescence assay
[25] = target: NAD-dependent protein deacetylase sirtuin-3, mitochondrial (Homo sapiens, UniProt Q9NTG7); assay: Inhibition of SIRT3 (unknown origin) using fluorogenic substrate assessed as deacetylase activity incubated for 45 mins by fluorescence assay
[26] = target: NAD-dependent protein deacetylase sirtuin-2 (Homo sapiens) (UniProt Q8IXJ6); assay: (§1) Inhibition of SIRT2 (unknown origin) assessed as increase in alpha-tubulin acetylation after 2 hrs by alpha-tubulin acetyl-K40 assay
[27] = target: T1, NAD-dependent protein deacetylase sirtuin-2; assay: as §1

NAD-dependent protein deacetylase sirtuin-1, sequence (Q96EB6 whole entry): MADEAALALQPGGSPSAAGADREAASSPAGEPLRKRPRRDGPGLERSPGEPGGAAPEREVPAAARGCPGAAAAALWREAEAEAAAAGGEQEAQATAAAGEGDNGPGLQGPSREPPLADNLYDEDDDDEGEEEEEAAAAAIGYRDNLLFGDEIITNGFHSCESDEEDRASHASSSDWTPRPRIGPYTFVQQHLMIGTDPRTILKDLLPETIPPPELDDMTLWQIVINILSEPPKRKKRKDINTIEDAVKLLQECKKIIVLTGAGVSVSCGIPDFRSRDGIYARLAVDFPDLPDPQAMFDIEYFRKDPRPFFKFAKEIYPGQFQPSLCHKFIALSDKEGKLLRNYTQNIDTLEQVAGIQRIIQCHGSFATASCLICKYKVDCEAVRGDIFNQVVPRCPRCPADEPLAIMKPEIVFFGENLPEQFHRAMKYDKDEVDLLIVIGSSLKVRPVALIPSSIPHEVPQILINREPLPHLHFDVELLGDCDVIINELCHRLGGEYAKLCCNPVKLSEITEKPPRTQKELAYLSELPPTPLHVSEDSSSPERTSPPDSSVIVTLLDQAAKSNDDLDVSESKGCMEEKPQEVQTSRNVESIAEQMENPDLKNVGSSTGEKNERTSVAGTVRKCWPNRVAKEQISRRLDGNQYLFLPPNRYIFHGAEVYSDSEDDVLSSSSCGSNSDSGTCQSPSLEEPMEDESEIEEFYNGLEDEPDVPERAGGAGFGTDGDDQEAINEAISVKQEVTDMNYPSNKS
NAD-dependent protein deacetylase sirtuin-3, mitochondrial, sequence (Q9NTG7 whole entry): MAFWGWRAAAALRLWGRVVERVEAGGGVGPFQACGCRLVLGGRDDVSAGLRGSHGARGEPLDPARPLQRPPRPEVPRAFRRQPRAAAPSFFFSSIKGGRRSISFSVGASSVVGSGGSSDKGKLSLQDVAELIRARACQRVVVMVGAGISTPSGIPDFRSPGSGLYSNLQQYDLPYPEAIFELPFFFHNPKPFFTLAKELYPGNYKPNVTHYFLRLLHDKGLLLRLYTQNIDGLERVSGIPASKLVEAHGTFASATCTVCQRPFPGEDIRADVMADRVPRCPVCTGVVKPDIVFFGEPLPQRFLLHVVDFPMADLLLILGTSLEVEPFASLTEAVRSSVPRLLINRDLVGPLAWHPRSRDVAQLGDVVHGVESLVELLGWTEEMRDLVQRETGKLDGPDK

| Structure (SMILES) | IC50 [1] | IC50 [2] | IC50 [3] | inhibition of growth at 10 µM [4] | inhibition of growth at 10 µM [5] | inhibition of growth at 10 µM [6] | inhibition of growth at 10 µM [7] | inhibition of growth at 10 µM [8] | inhibition of growth at 10 µM [9] | inhibition of growth at 10 µM [10] | inhibition of growth at 10 µM [11] | inhibition of growth at 10 µM [12] | inhibition of growth at 10 µM [13] | inhibition of growth at 10 µM [14] | inhibition of growth at 10 µM [15] | inhibition of growth at 10 µM [16] | inhibition of growth at 10 µM [17] | inhibition of growth at 10 µM [18] | inhibition of growth at 10 µM [19] | inhibition of growth at 10 µM [20] | also measured |
| --- | --- | --- | --- | --- | --- | --- | --- | --- | --- | --- | --- | --- | --- | --- | --- | --- | --- | --- | --- | --- | --- |
| O=[N+]([O-])c1cccc(C2c3sc4ccc(Cl)cc4c3N=C3NN=C(c4cccc(F)c4)N32)c1 (stereo unspecified) | 0.23 mg/L (≈ 0.481 µM) | 10.5 mg/L (≈ 21.9 µM) | 8.47 µM | 2.97% | 13% | 1.04% | 14.2% | 14% | -6.34% | -7.53% | -15.4% | -6.09% | 4.06% | -2.63% | -1.01% | 21.9% | -16.7% | 41.4% | 11.3% | 24.4% | inhibition of growth at 10 µM [21]: 13.4%; inhibition of growth at 10 µM [22]: -8.29%; inhibition of growth at 10 µM [23]: -20.8% |
| O=[N+]([O-])c1cccc(C2c3sc4ccc(Cl)cc4c3N=C3NN=CN32)c1 (stereo unspecified) | 9.8 mg/L (≈ 25.5 µM) | 26.2 mg/L (≈ 68.4 µM) | 6.64 µM | -6.74% | 0.47% | 4.93% | 10.8% | 21.7% | -6.88% | -15.1% | -17.9% | -3.45% | 3.57% | -1.09% | 5.64% | -3.12% | 1.71% | 23% | 28.2% | 16.9% | inhibition of growth at 10 µM [21]: 5.59%; inhibition of growth at 10 µM [22]: 16.9%; inhibition of growth at 10 µM [23]: -15.5% |
| O=C1CSC2=Nc3c(sc4ccc(Cl)cc34)C(c3ccc4ccccc4c3)N12 (stereo unspecified) | 2.34 mg/L (≈ 5.56 µM) | 12.4 mg/L (≈ 29.5 µM) | 4.99 µM | -2.82% | 13.7% | 15.4% | 6.69% | 16.7% | -30.1% | -0.5% | -15% | 1.52% | 15.7% | 1.49% | 2.84% | 27.5% | -5.09% | 37.4% | -8.09% | 27.3% | IC50 [24]: 4.3 µM; IC50 [25]: 48.7 µM; inhibition [26]: Dose-dependent effect; IC50 [27]: 76.1 µM; inhibition of growth at 10 µM [21]: 19.7%; inhibition of growth at 10 µM [22]: -8.05%; inhibition of growth at 10 µM [23]: 2.47% |
| NC(=O)CSC1=Nc2c(sc3ccc(Cl)cc23)C(c2cccc([N+](=O)[O-])c2)N1 (stereo unspecified) | 5.06 mg/L (≈ 11.7 µM) | 46.8 mg/L (≈ 108 µM) | 17 µM | -2.94% | 3.86% | 4.41% | 6.5% | 10.4% | -5.21% | -3.66% | -21.2% | -1.31% | 6.2% | -5.8% | -0.38% | 19.2% | -12.1% | 34.3% | -14.8% | 22.4% | inhibition of growth at 10 µM [21]: 7.36%; inhibition of growth at 10 µM [22]: -8.76%; inhibition of growth at 10 µM [23]: 2.9% |
